Experimental findings from patent publication US8188121B2, “Substituted pyridines as antiparasitic AZA teraryl compounds” (The University of North Carolina at Chapel Hill, priority 2005, dated 2012) are described below.

Data set [1] relates to STIB 900 strain of Trypanosoma brucei rhodesiense. Description: T. b. r. STIB 900 mouse model. In kind it is in vivo. The note with it: for responders at 20 mg/kg: Trypanosoma brucei, 1440 h, mice surviving parasite free for 60 days, groups of four, read-out: Cures (converted). As to the method: The activities of compounds 20, 18, 21, 48, 23c, 24c, 5, 4, and 10 against the STIB 900 strain of Trypanosoma brucei rhodesiense (T. b. r.) in a mouse model are shown in Table 3. […] Groups of four mice were infected intraperitoneally with 2×10^5 bloodstream forms of T. b. r. STIB 900 which originates from a patient in Tanzania. On days 3, 4, 5, and 6 post-infection the experimental groups were treated with the indicated compound, either by the intraperitoneal route, or for prodrugs, by the oral route. Usually the highest tolerated dose was used. The highest tolerated dose was determined in a pretoxicological experiment.
Parasitemia of the mice was checked daily up to day 14 post-infection and thereafter 2 times per week up to day 60. One group of mice was not treated and acted as control. Untreated control animals expire between day 7 and 8 post-infection. For relapsing mice, the day of death was recorded and the survival time determined. For the data shown in Table 3, cures reflect the number of mice that survive and are parasite free for 60 days. Survival reflects the average days of survival.
(§1) Testing methods are as described above in Example 17.

The test system of data set [2] is Leishmania donovani (L. d.). Description: In vitro antiprotozoal activity against L. d. Format: cell-based. Particulars: read-out: L. d. IC50. As to the method:
(§2) In vitro antiprotozoal activities were measured following established protocols. See Ismail, M. A., et al., J. Med. Chem., 46, 4761-4769 (2003); Stephens, C. E., et al., Bioorg. Med. Chem. Lett., 13, 2065-2069 (2003) (in vitro assay against Leishmania donovani).
as §1

Data set [3] deals with Plasmodium falciparum (P. f.). Description: In vitro antiprotozoal activity against P. f. In kind it is cell-based. As for the experimental part: as §2, §1
A further data set has as its system L-6 rat mycoblast cells. Description: cells. As for the experimental part: as §2, §1
Data set [4] concerns Trypanosoma brucei rhodesiense (T. b. r.). Description: In vitro antiprotozoal activity against T. b. r. Format: cell-based. As to the method:
as §2, §1

A further data set relates to DNA minor groove. Description: ΔTm of linear triaryl dications (DNA minor groove binding).
The mark [5] stands for this setting: 20 mg/kg ip, days 3-6 post-infection, average days of survival.
Where [6] appears, read: 20 mg/kg ip, days 3-6 post-infection.
[7] abbreviates: Plasmodium falciparum, Table 1, k/K = thousand.
[8] abbreviates: Rattus norvegicus, L6, read-out: CT IC50.
Where [9] appears, read: Trypanosoma brucei, RHODESIENSE, Table 1, k/K = thousand, read-out: T. b. r. IC50.
Setting [10] is: Table 1, k/K = thousand, read-out: T. b. r. IC50.
The mark [11] stands for this setting: Table 2, K = thousand, read-out: T. b. r. IC50.
[12] abbreviates: Rattus norvegicus, L6, read-out: CT IC50, Table 4, L-6 cells.

One may read the melting point as the temperature of the solid-liquid transition. In general, IC50 refers to the concentration at which inhibition is half-maximal. Broadly, the ΔTm is the change in melting temperature against a reference sample.

The structures appear in SMILES notation. Counter-ions that a name gives are not always drawn. Like-named read-outs stand apart in the source and are kept apart here.

`CC(=O)O.N=C(N)c1ccc(-c2ccc(-c3ccc(C(=N)N)o3)cc2)o1` yielded a melting point of 228 to 230 °C.

The compound `CONC(=N)c1ccc(-c2cnc(-c3ccc(C(=N)NOC)cc3)nc2)cc1` (as salt: hydrochloride) [Compound 29, 2,5-Bis-[4′-(N-methoxyamidino)phenyl]-pyrimidine] showed a melting point of 217 to 218 °C.

In turn, `N=C(NO)c1ccc(-c2ccc(-c3ccc(C(=N)NO)o3)cn2)cc1` [Compound 9, N-Hydroxy-5-{6-[4-(N-hydroxyamidino)-phenyl]-pyridin-3-yl}-furan-2-carboxamidine] showed a melting point of 194 to 195 °C.

Regarding `CC(=O)O.N=C(N)c1ccc(-c2ccc(-c3ccc(C(=N)N)o3)cn2)cc1` [Compound 10, 5-[6-(4-Amidinophenyl)-pyridin-3-yl]-furan-2-carboxamidine acetate salt], in data set [1] (setting [5]), the Survival is given as >53.5 days. For the same compound, the responders at 20 mg/kg in data set [1] (setting [6]) was 75%. The IC50 turned out to be 20500 nM in data set [2] (Leishmania donovani, Table 1); 5.2 nM in data set [3] (setting [7]); 30900 nM in the data set with L-6 rat mycoblast cells (setting [8]); 2 nM in data set [4] (setting [9]).

Turning to `N=C(NO)c1ccc(-c2ccc(-c3ccc(C(=N)NO)o3)cc2)o1` [Compound 13, N-Hydroxy-5-{4-[5-(N-hydroxyamidino)-furan-2-yl]-phenyl}-furan-2-carboxamidine], the melting point was > 300 °C.

As to `CC(=O)O.N=C(N)c1ccc(-c2ccc(-c3ccc(C(=N)N)cc3)cc2)cc1` [Compound 20, [1,1′;4′,1″]Terphenyl-4,4″-bis-carboxamidine acetate salt], the Survival in data set [1] (setting [5]) worked out at 52.5 days. Besides, the responders at 20 mg/kg in data set [1] (setting [6]) is 0%. In addition, the IC50 in data set [3] (setting [7]) was 1 nM; in the data set with L-6 rat mycoblast cells (setting [8]), 22100 nM; in data set [4] (setting [9]) it was 5 nM. In addition, the ΔTm with DNA minor groove (Table 1) was 19.1 °C.

With `Cl.N=C(N)c1ccc(-c2ccc(-c3ccc(C(=N)N)cc3)c(F)c2)cc1` [Compound 23a, 2′-Fluoro-[1,1′;4′,1″]terphenyl-4,4″-bis-amidine hydrochloride salt], the IC50 was found to be 340 nM in data set [2] (Leishmania donovani, Table 1); 1 nM in data set [3] (setting [7]); 6400 nM in the data set with L-6 rat mycoblast cells (setting [8]); 2 nM in data set [4] (setting [9]). For the same compound, the ΔTm with DNA minor groove (Table 1) worked out at 15.1 °C.

For the compound `Cl.N=C(N)c1ccc(-c2ccc(-c3ccc(C(=N)N)cc3)c(C(F)(F)F)c2)cc1` [Compound 23b, 2′-Trifluoromethyl-[1,1′;4′,1″]terphenyl-4,4″-bis-amidine hydrochloride salt], the melting point is > 300 °C. Also, in data set [2] (Leishmania donovani, Table 1), the IC50 was determined as 3000 nM. In addition, in data set [3] (setting [7]), 15 nM corresponded to half-maximal inhibition (IC50). The IC50 in the data set on L-6 rat mycoblast cells (setting [8]) came to 9000 nM. In addition, the ΔTm with DNA minor groove (Table 1) came out at 10.1 °C. In addition, the IC50 in data set [4] (setting [9]) came to 48 nM.

The compound `N=C(NO)c1ccc(-c2cnc(-c3ccc(C(=N)NO)cc3)nc2)cc1` [Compound 28, 2,5-Bis-[4′-(N-hydroxyamidino)phenyl]-pyrimidine] returned a melting point of 290 to 292 °C.

Regarding `N=C(N)c1ccc(-c2ccc(-c3ccc(C(=N)N)cn3)cc2)nc1` [Compound 31, 1,4-Bis-(5′-amidinopyridin-2′-yl)-phenylene], the IC50 was > 100000 nM in data set [2] (Table 1); 10 nM in data set [3] (Table 1, k/K = thousand); 47 nM in data set [4] (setting [10]).

In the case of `N=C(N)c1ccc(-c2ccc(-c3ccc(C(=N)N)cc3)c3ccccc23)cc1` [Compound 38a, Phenyl[1,1]napthyl[4′,1″]phenyl-4,4″-bis-amidine], the IC50 in data set [2] (Table 2) was 12900 nM; in data set [3] (Table 2, K = thousand), 21 nM; in the data set with L-6 rat mycoblast cells, 7300 nM; in data set [4] (setting [11]) it was 175 nM.

In the case of `N=C(N)c1ccc(-c2ccc3cc(-c4ccc(C(=N)N)cc4)ccc3c2)cc1` [Compound 38b, Phenyl[1,2′]naphthyl[6′,1″]phenyl-4,4″-bis-amidine], the IC50 in data set [2] (Table 2) amounted to 280 nM; in data set [3] (Table 2, K = thousand) it was 19 nM; in the data set with L-6 rat mycoblast cells, 8000 nM; in data set [4] (setting [11]), 53 nM. In addition, the ΔTm in the data set on DNA minor groove (Table 2) was found to be 18.2 °C.

`N=C(N)Nc1ccc(-c2ccc(-c3ccc(NC(=N)N)cc3)cc2)cc1` [Compound 48, 4,4″-Bis-guanidino-[1,1′;4′,1″]terphenyl]: the Survival in data set [1] (setting [5]) is reported as >60 days. The responders at 20 mg/kg in data set [1] (setting [6]) is 0%. Moreover, the IC50 in data set [2] (Leishmania donovani, Table 1) was found to be 1200 nM; in data set [3] (setting [7]), 27 nM; with L-6 rat mycoblast cells (Rattus norvegicus, L6, read-out: CT IC50, Table 1, L-6 cells) it was 25400 nM; in data set [4] (setting [9]), 18 nM. Moreover, in the data set with DNA minor groove (Table 1), the ΔTm is 12.2 °C.

As for `CC(C)N=C(N)Nc1ccc(-c2ccc(-c3ccc(NC(N)=NC(C)C)cc3)cc2)cc1` [Compound 51b, 4,4″-Bis(N′-isopropyl)-guanidino-[1,1′;4′,1″]terphenyl], the IC50 in data set [2] (Table 1) was 7200 nM; in data set [3] (Table 1, k/K = thousand) it was 14 nM; in the data set on L-6 rat mycoblast cells (read-out: CT IC50, Table 1, L-6 cells) it was 21900 nM; in data set [4] (setting [10]) it was 530 nM.

On to `N=C(N)c1ccc(-c2ccc(-c3ccc(C(=N)N)nc3)cc2)cn1` [Compound 66, 1,4-Bis-(2′-amidinopyridin-5′-yl)-phenylene hydrochloride salt], for which the Cures in data set [1] (5 mg/kg ip, Table 5) is 0/4. For the same compound, in data set [1] (5 mg/kg ip, Table 5), the Survival was > 51.5 days. The IC50 worked out at 720 nM in data set [2] (Leishmania donovani, Table 1); 63 nM in data set [2] (Leishmania donovani, Table 4); 31300 nM in the data set on L-6 rat mycoblast cells (setting [8]); 1200 nM in the data set on L-6 rat mycoblast cells (setting [12]). Also, in the data set with DNA minor groove (Table 1), the ΔTm was 16.1 °C.

For `N=C(N)c1ccc(-c2cnc(-c3ccc(C(=N)N)cc3)cn2)cc1` [Compound 75, 2,5-Bis-(4′-amidinophenyl)-pyrazine hydrochloride salt], the IC50 in data set [2] (Leishmania donovani) turned out to be 562 nM; in the data set with L-6 rat mycoblast cells (setting [12]), 42500 nM; in data set [4] (Trypanosoma brucei, RHODESIENSE, read-out: T. b. IC50) it was 18 nM.

In the case of `N=C(N)c1ccc(-c2ccc(-c3ccc(C(=N)N)nc3)cn2)cc1` [Compound 89, Phenyl[1,2′]pyridinyl[5′,5″]pyridinyl-4,2″-bis-amidine hydrochloride salt], the Cures in data set [1] (5 mg/kg ip, Table 5) is on record as 3/4. Further, in data set [1] (5 mg/kg ip, Table 5), the Survival is > 60 days. Further, the IC50 in data set [2] (Leishmania donovani, Table 4) was determined as 510 nM; in data set [3] (Plasmodium falciparum, Table 4), 1 nM; with L-6 rat mycoblast cells (setting [12]), 19900 nM; in data set [4] (Trypanosoma brucei, RHODESIENSE, Table 4, read-out: T. b. IC50), 6 nM.

Turning to `N=C(N)c1ccc(-c2ccc(-c3ccc(C(=N)N)cn3)cn2)cc1` [Compound 94, Phenyl[1,2′]pyridinyl[5′,2″]pyridinyl-4,5″-bis-amidine hydrochloride salt], in data set [1] (5 mg/kg ip, Table 5), the Survival was > 60 days. The IC50 in data set [2] (Leishmania donovani, Table 4) amounted to 6820 nM; in data set [3] (Plasmodium falciparum, Table 4), 3 nM; in the data set with L-6 rat mycoblast cells (setting [12]), 28300 nM.
